According to patent publication EP4775575A1, “COMPOUND USED AS CDK4 KINASE INHIBITOR AND USE THEREOF” (TYK Medicines, Inc., priority 2023, dated 2025):
Like-named read-outs stand apart in the source and are kept apart here.

Columns and labels:
[1] = system: Human breast cancer cells MCF-7; assay: Cell anti-proliferation assay (MTT), MCF-7; assay type: cell-based; details: MCF-7 cells, incubated for 5 days
Procedure: (§1) Human breast cancer cells MCF-7, human ovarian cancer cells A2780, human mantle cell lymphoma cells JEKO-1. DMEM medium (Bio-Channel), DMSO (dimethyl sulfoxide), MTT (thiazolyl blue), 0.25% EDTA-Trypsin (trypsin digestive solution), 1×PBS (phosphate buffered saline, pH 7.2), 96-well plate (Corning), fetal bovine serum (FBS), 10,000 U/mL penicillin-G/streptomycin, high-speed refrigerated centrifuge (EPPENDORF 5810R), and microplate reader (Tecan Spark).
(§2) • A) Tumor cells were cultured in DMEM (high glucose, containing 10% FBS and 100 U/mL penicillin-G/streptomycin) at 37 °C, 5% CO2 and saturated humidity until 80-90% confluence. • B) The medium in the 10 cm culture dish was removed. • C) Cells were rinsed once with 10 mL of 1×PBS. • D) 4 mL of 0.25% EDTA-Trypsin was added, and the cells were digested in a 37 °C, 5% CO2 incubator for 5 minutes. The mixture was transferred to a 15 mL centrifuge tube, centrifuged at 200 g for 5 minutes, and the supernatant was discarded to obtain cell pellet. • E) The cells were resuspended in 4 mL of DMEM medium, counted, and adjusted to 50,000 cells/mL. • F) 100 µL of cell suspension was added to each well of a 96-well plate, and the plate was incubated overnight at 37 °C in a 5% CO2 incubator.
(§3) • A) Gradient dilution solutions of the test compounds were prepared: the test compound was prepared into a 1 mM stock solution. Then 1.5 µL of the stock solution was dissolved in 1.5 mL of DMSO-free medium, followed by 3-fold serial gradient dilution with medium containing 0.1% DMSO to give 9 concentrations.
(§4) • A) The cell culture plate was taken out, and 10 µL of 5 mg/mL MTT was added in a biological safety cabinet; • B) The plate was returned to the incubator and incubated for another 3 hours; • C) The cell culture plate was taken out and the medium was removed, 100 µL of isopropanol (containing 0.4 mM HCl, 0.1% NP-40) was added, and the plate was shaken at room temperature for 30 minutes; • D) The absorbance at 570 nm was measured using a TECAN microplate reader.

[2] = system: human ovarian cancer cells A2780; assay: Cell anti-proliferation assay (MTT), A2780; assay type: cell-based; details: incubated for 5 days
Procedure: as §1, §2, §3, §4

[3] = system: human mantle cell lymphoma cells JEKO-1; assay: Cell anti-proliferation assay (MTT), JEKO-1; assay type: cell-based; details: JEKO-1 cells, incubated for 5 days
Procedure: as §1, §2, §3, §4

[4] = Preclinical pharmacokinetic study in rats; assay type: in vivo, Sprague-Dawley (SD) rats; details: male SD rats, oral gavage (p.o.) 10 mg/kg, plasma; for AUC(0-t) / Cmax / Tmax: rat
Procedure: Healthy adult Sprague-Dawley (SD) rats, male, 6-8 weeks old, weighing 200-300 g. EDTA-Na2 anticoagulant. Analytical balance, animal weighing scale, magnetic stirrer, refrigerated centrifuge, single-channel manual pipette, etc. About 10 mg of the test sample was precisely weighed, dissolved in a calculated volume of 5% DMSO, followed by addition of 10% solutol HS-15 and 85% normal saline. The mixture was sonicated and vortexed to homogeneity to obtain a solution with a concentration of 1 mg/mL. The solution was freshly prepared before use. Animals were housed in rat cages and fasted overnight (no less than 10 h) before the test, with free access to water. On the day of the test, animals were weighed and marked on the tail. Blank blood samples were collected before administration. The blood was collected via tail vein. • Route of administration: oral gavage (p.o.) • Dose: 10 mg/kg • Dosing volume: 10 mL/kg • Procedure: The rat was held upright with the left hand wearing bite-resistant glove. A 16-gauge gavage needle was inserted through the mouth into the esophagus. The needle was advanced gently without obvious resistance, and the drug solution was injected into the stomach. Whole blood (0.1 mL) were collected from each test animal before administration and at 0.5 […], and 24 h after administration into EDTA-Na2 anticoagulant tubes. The tubes were inverted 3-4 times for mixing, then centrifuged at 10,000 g for 5 min at 4 °C to separate plasma. Plasma samples were stored at -80 °C until analysis. Blood was collected via tail vein. […] The mixture was vortexed for 2 min and centrifuged at 10,000 g for 10 min at 4 °C. Processing of unknown plasma samples: 25 μL of drug-containing rat plasma was transferred, followed by addition of 25 μL of methanol and 200 μL of internal standard solution. The mixture was vortexed for 2 min and centrifuged at 10,000 g for 10 min at 4 °C. The supernatant was collected for LC-MS/MS analysis. A quantitative method for the determination of the test compound was established using a Shimadzu liquid chromatography system coupled with Triple Quad^TM 6500+ AB mass spectrometer. The concentration of the parent drug in plasma was determined. The plasma concentration-time curve was plotted, and the main pharmacokinetic parameters were calculated using a non-compartmental model in winnonlin Phoenix software.

[5] = biological target: T1, CDK6/CyclinD3 (Homo sapiens, UniProt Q00534); assay: Kinase activity assay (MSA, EZ Reader) against CDK6; assay type: biochemical; details: CDK6/CyclinD3 5.00 nM, ATP 350 µM, FL-Peptide34, 10mM MgCl2
T1 construct: purchased Carna 04-107
T1 sequence (Q00534 whole entry): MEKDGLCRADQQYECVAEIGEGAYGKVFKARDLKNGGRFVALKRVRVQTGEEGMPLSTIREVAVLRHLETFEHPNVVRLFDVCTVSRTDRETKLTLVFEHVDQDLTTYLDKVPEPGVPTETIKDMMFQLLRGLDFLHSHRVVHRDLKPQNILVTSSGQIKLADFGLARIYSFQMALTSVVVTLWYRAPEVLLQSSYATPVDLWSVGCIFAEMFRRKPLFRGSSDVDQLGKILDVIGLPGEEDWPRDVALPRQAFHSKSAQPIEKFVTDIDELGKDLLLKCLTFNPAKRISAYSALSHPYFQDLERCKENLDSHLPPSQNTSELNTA
T1 sequence (P30281 whole entry partner): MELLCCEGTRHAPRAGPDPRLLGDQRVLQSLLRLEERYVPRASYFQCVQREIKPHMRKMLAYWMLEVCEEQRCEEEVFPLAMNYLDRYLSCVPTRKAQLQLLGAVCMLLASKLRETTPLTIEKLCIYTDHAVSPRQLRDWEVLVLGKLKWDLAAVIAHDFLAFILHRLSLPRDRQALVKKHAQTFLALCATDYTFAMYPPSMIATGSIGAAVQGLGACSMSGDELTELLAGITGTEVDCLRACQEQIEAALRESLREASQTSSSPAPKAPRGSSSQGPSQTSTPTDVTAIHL

Row | SMILES | IC50 ([1]; Homo sapiens, MCF7, 120 h) | IC50 ([2]; Homo sapiens, 120 h) | IC50 ([3]; Homo sapiens, 120 h) | other results
1 | CN1CCCn2c1nc1c(F)cc(-c3nc(N[C@@H]4CCOC[C@H]4O)ncc3C(F)(F)F)cc12 [TB-41, (3S,4R)-4-((4-(9-fluoro-1-methyl-1,2,3,4-tetrahydrobenzo[4,5]imidazo[1,2-a]pyrimidin-7-yl)-5-(trifluoromethyl)pyrimidin-2-yl)amino)tetrahydro-2H-pyran-3-ol] | 500 to 2000 nM | 500 to 2000 nM | 500 to 2000 nM | 
2 | C[C@H]1CCN([C@H]2C[C@H](O)C2)c2nc3c(F)cc(-c4nc(N[C@@H]5CCOC[C@H]5O)ncc4Cl)cc3n21 [TA-31] |  |  |  | IC50 ([1]; read-out: MCF7 IC50): > 2000 nM; IC50 [2]: 500 to 2000 nM; IC50 [3]: ≤ 500 nM
3 | C[C@H]1CCN(CC(F)(F)F)c2nc3c(F)cc(-c4nc(N[C@@H]5CCOC[C@H]5O)ncc4Cl)cc3n21 [TA-29] | ≤ 500 nM | ≤ 500 nM | ≤ 500 nM | AUC(0-t) ([4]; Sprague-Dawley): 1490 ng·h/mL; Cmax ([4]; Sprague-Dawley): 506 ng/mL; Tmax ([4]; Sprague-Dawley): 40.2 min; HL_ [4]: 1.60 h
4 | C[C@H]1CCN(C2CCC2)c2nc3c(F)cc(-c4nc(N[C@@H]5CCOC[C@H]5O)ncc4Cl)cc3n21 [TA-5] | 500 to 2000 nM | ≤ 500 nM | ≤ 500 nM | 
5 | C[C@H]1CCN(C2CCCC2)c2nc3c(F)cc(-c4nc(N[C@@H]5CCOC[C@H]5O)ncc4Cl)cc3n21 [TA-6] | ≤ 500 nM | ≤ 500 nM | 500 to 2000 nM | 
6 | CC(C)N1CCCn2c1nc1c(F)cc(-c3nc(N[C@@H]4CCOC[C@H]4O)ncc3Cl)cc12 [TB-108, (3S,4R)-4-((5-chloro-4-(9-fluoro-1-isopropyl-1,2,3,4-tetrahydrobenzo[4,5]imidazo[1,2-a]pyrimidin-7-yl)pyrimidin-2-yl)amino)tetrahydro-2H-pyran-3-ol] | ≤ 500 nM | ≤ 500 nM | ≤ 500 nM | AUC(0-t) ([4]; Sprague-Dawley): 1370 ng·h/mL; Cmax ([4]; Sprague-Dawley): 503 ng/mL; Tmax ([4]; Sprague-Dawley): 36 min; HL_ [4]: 1.25 h
7 | C[C@H]1CCN(CC(F)F)c2nc3c(F)cc(-c4nc(N[C@@H]5CCOC[C@H]5O)ncc4Cl)cc3n21 [TC-6] | 500 to 2000 nM | ≤ 500 nM | ≤ 500 nM | 
8 | C[C@H]1CCN(S(C)(=O)=O)c2nc3c(F)cc(-c4nc(N[C@@H]5CCOC[C@H]5O)ncc4Cl)cc3n21 [TC-8] | > 2000 nM | 500 to 2000 nM | > 2000 nM | 
9 | CN1C(=O)CCn2c1nc1c(F)cc(-c3nc(N[C@@H]4CCOC[C@H]4O)ncc3Cl)cc12 [TB-46, 7-(5-chloro-2-(((3S,4R)-3-hydroxytetra hydro-2H-pyran-4-yl)amino)pyrimidin-4-yl)-9-fluoro-1-methyl-3,4-dihydrobenzo[4,5]imidazo[1,2-a]pyrimidin-2(1H)-one] | ≤ 500 nM | ≤ 500 nM | ≤ 500 nM | IC50 [5]: 244 nM
10 | C[C@H]1CCN(c2cc(F)ccc2F)c2nc3c(F)cc(-c4nc(N[C@@H]5CCOC[C@H]5O)ncc4Cl)cc3n21 [TC-16] | ≤ 500 nM | ≤ 500 nM | ≤ 500 nM | 
11 | CN1CCCn2c1nc1c(F)cc(-c3nc(NC4CCOCC4)ncc3Cl)cc12 [TB-132, 5-chloro-4-(9-fluoro-1-methyl-1,2,3,4-tetrahydrobenzo[4,5]imidazo[1,2-a]pyrimidin-7-yl)-N-(tetrahydro-2H-pyran-4-yl)pyrimidin-2-amine] | 500 to 2000 nM | ≤ 500 nM | ≤ 500 nM | IC50 [5]: 246 nM
12 | CN1CCCn2c1nc1c(F)cc(-c3nc(NC4CCN(S(C)(=O)=O)CC4)ncc3Cl)cc12 [TB-43, 5-chloro-4-(9-fluoro-1-methyl-1,2,3,4-tetrahydrobenzo[4,5]imidazo[1,2-a]pyrimidin-7-yl)-N-(1-(methylsulfonyl)piperidin-4-yl)pyrimidin-2-amine] |  |  |  | IC50 ([1]; read-out: MCF7 IC50): ≤ 500 nM; IC50 [2]: ≤ 500 nM; IC50 [3]: ≤ 500 nM
13 | CCN1CCCn2c1nc1c(F)cc(-c3nc(N[C@@H]4CCOC[C@H]4O)ncc3Cl)cc12 [TB-109, (3S,4R)-4-((5-chloro-4-(1-ethyl-9-fluoro-1,2,3,4-tetrahydrobenzo[4,5]imidazo[1,2-a]pyrimidin-7-yl)pyrimidin-2-yl)amino)tetrahydro-2H-pyran-3-ol] | 500 to 2000 nM | ≤ 500 nM | ≤ 500 nM | AUC(0-t) ([4]; Sprague-Dawley): 1770 ng·h/mL; Cmax ([4]; Sprague-Dawley): 777 ng/mL; Tmax ([4]; Sprague-Dawley): 30 min; HL_ [4]: 5.32 h
14 | CC(C)n1c(N2CCOC2=O)nc2c(F)cc(-c3nc(N[C@@H]4CCOC[C@H]4O)ncc3C(F)(F)F)cc21 [TB-27] |  |  |  | AUC(0-t) ([4]; Sprague-Dawley): 11500 ng·h/mL; Cmax ([4]; Sprague-Dawley): 1500 ng/mL; Tmax ([4]; Sprague-Dawley): 140 min; HL_ [4]: 3.69 h
15 | C[C@H]1CCN(c2c(F)cccc2F)c2nc3c(F)cc(-c4nc(N[C@@H]5CCOC[C@H]5O)ncc4Cl)cc3n21 [TC-15] | 500 to 2000 nM | 500 to 2000 nM | 500 to 2000 nM | 
16 | C[C@H]1CCN([C@H]2C[C@@H](O)C2)c2nc3c(F)cc(-c4nc(N[C@@H]5CCOC[C@H]5O)ncc4Cl)cc3n21 [TA-42] | > 2000 nM | 500 to 2000 nM | 500 to 2000 nM | 
17 | COc1ccc(CN2CC[C@H](C)n3c2nc2c(F)cc(-c4nc(N[C@@H]5CCOC[C@H]5O)ncc4Cl)cc23)cc1 [TA-8] | ≤ 500 nM | 500 to 2000 nM | ≤ 500 nM | 
18 | C[C@H]1CCN(c2ccccc2C#N)c2nc3c(F)cc(-c4nc(N[C@@H]5CCOC[C@H]5O)ncc4Cl)cc3n21 [TC-18] | ≤ 500 nM | ≤ 500 nM | ≤ 500 nM | 
19 | COC(=O)N1CCC(Nc2ncc(Cl)c(-c3cc(F)c4nc5n(c4c3)CCCN5C)n2)CC1 [TB-93, methyl 4-((5-chloro-4-(9-fluoro-1-methyl-1,2,3,4-tetrahydrobenzo[4,5]imidazo[1,2-a]pyrimidin-7-yl)pyrimidin-2-yl)amino)piperidine-1-carboxylate] | 500 to 2000 nM | ≤ 500 nM | ≤ 500 nM | 
20 | C[C@H]1C[C@H](C)n2c(nc3c(F)cc(-c4nc(N[C@@H]5CCOC[C@H]5O)ncc4Cl)cc32)N1C [TB-153] |  |  |  | IC50 ([1]; read-out: MCF7 IC50): ≤ 500 nM; IC50 [2]: ≤ 500 nM; IC50 [3]: ≤ 500 nM
21 | C[C@H]1CC(=O)N(C)c2nc3c(F)cc(-c4cc(N[C@@H]5CCOC[C@H]5O)ncc4Cl)cc3n21 [TB-158] | ≤ 500 nM | ≤ 500 nM | ≤ 500 nM | 
22 | C[C@H]1CCN(C2COC2)c2nc3c(F)cc(-c4nc(N[C@@H]5CCOC[C@H]5O)ncc4Cl)cc3n21 [TA-30] | > 2000 nM | > 2000 nM | > 2000 nM | 
23 | CN1CCC(C)(C)n2c1nc1c(F)cc(-c3cc(N[C@@H]4CCOC[C@H]4O)ncc3Cl)cc12 [TB-150] | ≤ 500 nM | ≤ 500 nM | ≤ 500 nM | 
24 | [2H]C([2H])([2H])N1CC[C@H](C)n2c1nc1c(F)cc(-c3nc(N[C@@H]4CCOC[C@H]4O)ncc3Cl)cc12 [TA-28] |  |  |  | IC50 ([1]; read-out: MCF7 IC50): ≤ 500 nM; IC50 [2]: ≤ 500 nM; IC50 [3]: ≤ 500 nM; HL_ [4]: 1.58 h; AUC(0-t) ([4]; in vivo): 2490 ng·h/mL; Cmax ([4]; in vivo): 990 ng/mL; Tmax ([4]; in vivo): 30 min
